Test systems include ACHN renal; CAKI-1 renal; DLD-1 colon; M14 melanoma; NCI-H226 lung; NCI-H23 lung; OVCAR-3 ovarian; OVCAR-5 ovarian; SF-268 CNS; SK-MEL-5 melanoma; SNB-19 CNS; SR leukemia; SW-620 colon; KM12 colon; BT-549 breast; HS 578T breast; MDA-N; PC-3 prostate; RXF 393 renal; T-47D breast.
Common to all, as to experiment: NCI-60 cell line screen, 48 h

SMILES strings stand for the structures.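 Dose response: 5 concentrations. Exposure: 48 h. Format: 96-well plates. Endpoint: linear interpolation; highest concentration if not reached. TGI: concentration producing complete growth inhibition.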 Bounds are passed on as bounds.

With `CCCCCCCCOCC(O)COC(C)C` (stereo not given), the TGI was more than 100 µM in the test with ACHN renal; more than 100 µM in the test with CAKI-1 renal; more than 100 µM in the test with DLD-1 colon; more than 100 µM with M14 melanoma; more than 100 µM in the test on NCI-H226 lung; 88 µM in the test with NCI-H23 lung. Moreover, the TGI was 32.9 µM in the test on OVCAR-3 ovarian; more than 100 µM in the test on OVCAR-5 ovarian; more than 100 µM with SF-268 CNS; more than 100 µM with SK-MEL-5 melanoma; more than 100 µM in the test with SNB-19 CNS; 40.2 µM with SR leukemia. Besides, in the test on SW-620 colon, the TGI was more than 100 µM.

Take `O=C(C=C1SCCS1)/C=C\c1ccc(Cl)cc1`: the TGI with CAKI-1 renal, in the test on DLD-1 colon, in the test on KM12 colon, with M14 melanoma, in the test with NCI-H226 lung and in the test with NCI-H23 lung was more than 100 µM each time. In addition, the TGI with OVCAR-3 ovarian, with SF-268 CNS, in the test on SK-MEL-5 melanoma, in the test on SNB-19 CNS, with SR leukemia and in the test with SW-620 colon was more than 100 µM each time.

For `CCCCNc1nc2ccccc2c2c1ncn2CC(C)C`, the TGI in the test with ACHN renal, in the test with BT-549 breast, with CAKI-1 renal, in the test with HS 578T breast, in the test with KM12 colon and in the test with M14 melanoma was more than 100 µM in each case. Moreover, the TGI with MDA-N, with NCI-H226 lung, with NCI-H23 lung, in the test with OVCAR-3 ovarian, in the test with OVCAR-5 ovarian and with PC-3 prostate was more than 100 µM in each case. For the same compound, the TGI in the test on RXF 393 renal, with SF-268 CNS, in the test with SK-MEL-5 melanoma, with SNB-19 CNS, in the test with SR leukemia and with SW-620 colon was more than 100 µM each time. Besides, in the test with T-47D breast, the TGI was more than 100 µM.

With `CCCC(=O)NC(Nc1cc(C)ccn1)(C(=O)OCC)C(F)(F)F` (stereo not given), the TGI in the test with ACHN renal, in the test on BT-549 breast, in the test with CAKI-1 renal, in the test on HS 578T breast, in the test with KM12 colon and in the test with M14 melanoma was more than 100 µM throughout. Besides, the TGI in the test with MDA-N, with NCI-H226 lung, in the test on NCI-H23 lung, in the test on OVCAR-3 ovarian, in the test with OVCAR-5 ovarian and in the test with PC-3 prostate was more than 100 µM throughout. Also, the TGI in the test on RXF 393 renal, in the test with SF-268 CNS, in the test on SK-MEL-5 melanoma, in the test with SNB-19 CNS, in the test with SR leukemia and with SW-620 colon was more than 100 µM in each case. The compound also showed a TGI in the test on T-47D breast of more than 100 µM.

Turning to `CCCCCCCCCCCCCCCCCCNc1ccn(C2OC(COP(=O)(O)OCC3OC(n4cc(C)c(=O)[nH]c4=O)CC3F)C(O)C2O)c(=O)n1` (stereo not given), the TGI with ACHN renal is more than 57.1 µM; in the test on BT-549 breast it was 11 µM; in the test with CAKI-1 renal, 16.8 µM; in the test with HS 578T breast, 50.3 µM; with KM12 colon, 14.3 µM; in the test on M14 melanoma, 30.9 µM. Besides, the TGI is 38.9 µM in the test on MDA-N; 59.5 µM with NCI-H226 lung; 17.9 µM with NCI-H23 lung; 50.5 µM with OVCAR-3 ovarian; 6.48 µM with OVCAR-5 ovarian; 5.38 µM in the test on PC-3 prostate. In addition, the TGI in the test on RXF 393 renal amounted to 3.84 µM; with SF-268 CNS it was 19.5 µM; in the test on SK-MEL-5 melanoma, 44.9 µM; with SNB-19 CNS, 14.1 µM; in the test with SR leukemia, 5.14 µM; in the test with SW-620 colon it was 12.3 µM. In the test on T-47D breast, this compound displayed a TGI of 44.2 µM.

`S=C(NNC1=NCCCCN1)Nc1ccc(Cl)cc1`: the TGI in the test on ACHN renal is 90.2 µM; in the test on BT-549 breast, more than 100 µM; with CAKI-1 renal it was 0.0151 µM; in the test with HS 578T breast, more than 100 µM; with KM12 colon, more than 100 µM; with M14 melanoma, 22.1 µM. The TGI is more than 100 µM in the test with MDA-N; more than 100 µM in the test with NCI-H226 lung; more than 100 µM with NCI-H23 lung; more than 100 µM in the test with OVCAR-3 ovarian; more than 100 µM in the test on OVCAR-5 ovarian; 62.8 µM in the test on PC-3 prostate. The TGI in the test on RXF 393 renal is more than 100 µM; in the test on SF-268 CNS, more than 100 µM; in the test on SK-MEL-5 melanoma it was 20.5 µM; in the test with SNB-19 CNS, more than 100 µM; with SR leukemia, 60.9 µM; in the test with SW-620 colon, more than 100 µM. In the test with T-47D breast, this compound had a TGI of more than 100 µM.

Consider `O=[N+]([O-])c1ccc(-c2cc(O)c3nc4ccccc4n3c2)cc1`, for which the TGI with ACHN renal, in the test on BT-549 breast, in the test on CAKI-1 renal, in the test on HS 578T breast, in the test with KM12 colon and with M14 melanoma was more than 100 µM each time. The TGI with MDA-N, in the test with NCI-H226 lung, in the test with NCI-H23 lung, in the test with OVCAR-3 ovarian, with OVCAR-5 ovarian and in the test with PC-3 prostate was more than 100 µM each time. For the same compound, the TGI in the test on RXF 393 renal, with SF-268 CNS, with SK-MEL-5 melanoma, in the test on SNB-19 CNS, in the test with SR leukemia and in the test with SW-620 colon was more than 100 µM throughout. For the same compound, in the test with T-47D breast, the TGI was more than 100 µM.

In the case of `CCN(CC)CCC(=O)c1ccc(Sc2ccc(F)cc2)cc1`, the TGI stood at 33.2 µM with ACHN renal; 31.6 µM with BT-549 breast; 29.5 µM with CAKI-1 renal; 30.8 µM in the test on HS 578T breast; 30.6 µM in the test with KM12 colon; 54.6 µM with M14 melanoma. For the same compound, the TGI is 49 µM with MDA-N; 39.2 µM in the test on NCI-H226 lung; 33.9 µM in the test with NCI-H23 lung; 40.9 µM in the test with OVCAR-3 ovarian; 39.3 µM in the test with OVCAR-5 ovarian; 33.6 µM in the test with PC-3 prostate. The TGI was 35.1 µM in the test with RXF 393 renal; 35.1 µM in the test with SF-268 CNS; 34.5 µM with SK-MEL-5 melanoma; 34 µM in the test on SNB-19 CNS; 48.6 µM in the test with SR leukemia; 41.2 µM in the test with SW-620 colon. Besides, the TGI in the test with T-47D breast was 42.9 µM.

Take `Cc1ccc(/C=N/n2c(Cc3ccccc3)n[nH]c2=O)cc1`: the TGI in the test with ACHN renal, in the test on BT-549 breast, in the test with CAKI-1 renal, in the test on HS 578T breast, in the test on KM12 colon and in the test with M14 melanoma was more than 100 µM in each case. Moreover, the TGI in the test on MDA-N, in the test with NCI-H226 lung, in the test with NCI-H23 lung, in the test with OVCAR-3 ovarian, with OVCAR-5 ovarian and in the test with PC-3 prostate was more than 100 µM in each case. Moreover, the TGI in the test with RXF 393 renal, in the test with SF-268 CNS, in the test with SK-MEL-5 melanoma, in the test with SNB-19 CNS, with SR leukemia and in the test with SW-620 colon was more than 100 µM throughout. In the test on T-47D breast, this compound registered a TGI of more than 100 µM.

On to `CC1=NN(c2nc(N)nc(CBr)n2)C(C)(C)C1`, for which the TGI in the test with ACHN renal was found to be 13.9 µM; in the test with BT-549 breast, 28.9 µM; in the test with CAKI-1 renal, 3.06 µM; with HS 578T breast, 38.2 µM; with KM12 colon, 23.5 µM; in the test on M14 melanoma, 21.2 µM. Moreover, the TGI in the test with MDA-N turned out to be 25.5 µM; with NCI-H226 lung, 12.2 µM; in the test on NCI-H23 lung, 29.9 µM; in the test on OVCAR-3 ovarian, 13.4 µM; in the test on OVCAR-5 ovarian, 13.8 µM; with PC-3 prostate it was 18 µM. Besides, the TGI came to 12 µM in the test on RXF 393 renal; 23 µM with SF-268 CNS; 26.2 µM in the test on SK-MEL-5 melanoma; 36.6 µM in the test with SNB-19 CNS; 17.1 µM in the test with SR leukemia; 12.7 µM with SW-620 colon. The compound further gave a TGI in the test with T-47D breast of 18 µM.

On to `COC(=O)c1c(C)cccc1C1CN=NC12Cc1ccccc1C2=O` (stereo not given), for which the TGI in the test on ACHN renal is more than 100 µM; in the test with BT-549 breast, more than 100 µM; in the test with CAKI-1 renal, more than 100 µM; in the test with HS 578T breast, more than 100 µM; in the test with KM12 colon, more than 100 µM; in the test on M14 melanoma, more than 87.9 µM. Besides, the TGI with MDA-N, in the test with NCI-H226 lung, in the test on NCI-H23 lung, with OVCAR-3 ovarian, in the test on OVCAR-5 ovarian and in the test on PC-3 prostate was more than 100 µM each time. Further, the TGI with RXF 393 renal, in the test on SF-268 CNS, with SK-MEL-5 melanoma, in the test on SNB-19 CNS, in the test on SR leukemia and with SW-620 colon was more than 100 µM in each case. In the test with T-47D breast, this compound yielded a TGI of more than 100 µM.

Turning to `Cc1ccc(S(=O)(=O)N2CCN(S(=O)(=O)c3ccc(C)cc3)CCN(S(=O)(=O)c3ccc(C)cc3)Cc3cc(C#N)c(C#N)cc3CN(S(=O)(=O)c3ccc(C)cc3)CC2)cc1`, the TGI in the test on ACHN renal was more than 100 µM; in the test with BT-549 breast, more than 100 µM; with CAKI-1 renal, more than 100 µM; in the test on HS 578T breast, more than 100 µM; with KM12 colon it was more than 100 µM; in the test on M14 melanoma, 89.1 µM. The TGI with MDA-N, in the test on NCI-H226 lung, in the test with NCI-H23 lung, with OVCAR-3 ovarian, in the test on OVCAR-5 ovarian and in the test with PC-3 prostate was more than 100 µM each time. The TGI in the test with RXF 393 renal, in the test on SF-268 CNS, in the test with SK-MEL-5 melanoma, with SNB-19 CNS, in the test with SR leukemia and in the test with SW-620 colon was more than 100 µM throughout. Besides, the TGI in the test on T-47D breast was more than 100 µM.

These data come from PubChem BioAssay (NCI).
